Source: US20230103965A1, “NOVEL ACTIVATORS OF THE LIPIDATING TRANSPORTER ATP BINDING CASSETTE PROTEIN TYPE 1 (AB-CA1) AND THERAPEUTIC USES THEREOF” (RAMOT AT TEL-AVIV UNIVERSITY LTD., priority 2020, published 2023)

Legend:
Human Astrocytes = experiment: Cholesterol efflux (apoE4 lipidation) assay, BODIPY-cholesterol translocation to apoE4; type: cell-based; details: for EC50: Astrocyte, Human astrocytes, efflux to apoE4
Method: Cholesterol efflux assay in HTS. CCF-STTG1 cells were plated in 384-well plates containing 50 μL/well RPMI supplemented with 10% FBS at a density of 5×10^3 cells/well, using a Multidrop 384 Reagent Dispenser (Thermo Scientific), and incubated for 48 hr. Cells were washed twice with 50 μl PBS using an EL406 Microplate Washer Dispenser (BioTek, Winooski, Vt., USA) before being labeled with 50 μl of 10 μM BODIPY-cholesterol+100 μM cyclodextrin (CD) in RPMI 1640 medium containing 0.2% BSA. The labeling medium was added using in a Washer Dispenser II (GNF, San Diego, Calif., USA). Plates were transferred automatically to a Liconic incubator (Mauren Principality of Liechtenstein) and incubated for 24 h. Subsequently, cells were washed twice as described above to remove external cholesterol. Next, 50 μl of the efflux medium was added, which contained recombinant apoE4 at a concentration of 40 μg/ml in transparent RPMI 1640 (no phenol red), again using Washer Dispenser II (GNF, San Diego, Calif., USA). The positive control contained the ABCA1 activator, CS-6253 (120 μg/ml) in addition to the acceptor (apoE4). After 7 hr of efflux, the medium was transferred to new plates, using the Bravo Automated Liquid Handling system (Agilent, Santa Clara, Calif., USA). Fluorescence polarization (FP) and fluorescence intensity (FI) of the medium were measured in a PheraStar FS plate reader (BMG Labtech, Ortenberg, Germany).
The apoE4 lipidation Assay is based on measurements of the ability of astrocytes to translocate fluorescently labelled cholesterol to recombinant non lipidated apoE4 and on the extent to which this effect is enhanced by treatment with each of the screened compounds (FIG. 2, 3). This assay is an adaptation of previous studies of cholesterol translocation from labelled astrocytes to external acceptors such as apoE4 [16], except that in order to differentiate between gene expression related effects and direct biochemical effects of the hits on ABCA1, the incubations of the HTS with the cells was limited to 8 hours. The extent to which the cells secret the labelled cholesterol and transfer it to non-lipidated apoE4 was determined by regular fluorescence as well as by fluorescence polarization microscopy. The latter technique in this context is used due to its sensitivity to particle size which decreases the background signal by differentiating between free and particle bound released cholesterol.
The assay was characterized biochemically and it was shown that translocation of labelled cholesterol to apoE4 is time and concentration dependent (FIG. 4) and was increased by the positive control ABCA1 agonistic 26mer peptide CS-6253 [4] (FIG. 5). The assay was used for high throughput screening (HTS) and selection of positive hits. 50,000 compounds from commercially available libraries were screened utilizing the double criteria of a signal greater than 3 standard deviations from the mean of all of the screened compounds, and being similar or greater than the apoE4 lipidation driven by the ABCA1 agonistic peptide CS-6253. Additional criteria included the tier drug ability value with tier 1 being best and tier 3 being least suitable, as well as a hydrophobicity value of 2<log P<5 value. This yielded 14 hits, designated Compounds #1-#14 (FIG. 6).

[1] = tested on: apoE4 astrocytic cell line; experiment: Cellular viability / cytotoxicity of the hits; type: cell-based, Rodent; details: 50 μM
Method: FIG. 10: Effects of test compounds (HTS hits) on cellular viability. Experiments were performed on apoE4 astrocytic cell line in the presence of 50 μM of the indicated compounds. Viability was measured microscopically and by measurements of total cellular protein. (ii) Measurements of cytotoxicity of the hits.

ECD1 of ABCA1 [2] = target: T1, ECD1 of ABCA1 (Homo sapiens, UniProt O95477); experiment: Microscale thermophoresis (MST) binding, labelled protein
T1 construct: The proteins used in these experiments were Extra-Cellular Domain 1 (ECD1) of ABCA1 and Extra-Cellular Domain 2 (ECD2); purchased Biomatick
T1 sequence (O95477 43-639 limits assumed): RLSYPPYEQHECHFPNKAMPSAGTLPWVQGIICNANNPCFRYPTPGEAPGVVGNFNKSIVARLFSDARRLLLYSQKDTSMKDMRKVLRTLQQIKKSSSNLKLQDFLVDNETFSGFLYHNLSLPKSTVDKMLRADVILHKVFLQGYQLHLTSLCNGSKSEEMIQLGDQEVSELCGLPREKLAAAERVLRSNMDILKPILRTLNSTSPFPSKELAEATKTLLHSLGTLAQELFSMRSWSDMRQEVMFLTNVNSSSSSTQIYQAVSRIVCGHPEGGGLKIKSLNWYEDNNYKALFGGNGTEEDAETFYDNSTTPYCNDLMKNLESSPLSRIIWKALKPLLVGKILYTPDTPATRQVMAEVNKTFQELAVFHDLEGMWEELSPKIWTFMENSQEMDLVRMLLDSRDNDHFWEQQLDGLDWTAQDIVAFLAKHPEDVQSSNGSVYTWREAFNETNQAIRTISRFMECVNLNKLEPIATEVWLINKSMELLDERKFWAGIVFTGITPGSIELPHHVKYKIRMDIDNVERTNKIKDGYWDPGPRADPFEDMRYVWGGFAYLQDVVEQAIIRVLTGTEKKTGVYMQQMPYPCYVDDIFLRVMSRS
Method: (§1) Microscale thermophoresis (MST) measurements. MST measurements of the binding of the HTS hits to the extracellular domain (ECD) of ABCA1 were performed by two complimentary methods utilizing either fluorescently labeled proteins or the endogenous fluorescence of unlabeled proteins. This was pursued as follows:
The buffers of protein samples were exchanged on a desalting PD-10 column to MST labelling buffer (Nanotemper Technologies, NT.115). Each protein was labeled with Alexa Fluor 650 succinimidyl-ester (Thermo Fisher Scientific) in 3-fold excess and then incubated for 1 hr in the dark at room temperature. Excess dye was removed by PD-10 desalting columns. […] Protein-compound interactions were analyzed by microscale thermophoresis. […] Hits were prepared at the highest concentration soluble in MST buffer (Nanotemper)+10% DMSO. Next, hits were diluted by 2 in 16 consecutive tubes of 10 μl per tube. Then, 10 μl of the protein were added to each tube and centrifuged in 12,000 rpm for 10 minutes. Finally, the samples were loaded to the capillaries and were inserted to the MST machine. Experiments were performed on a microMonolith NT.115 Blue/Red (NanoTemper Technologies) in duplicates. Measurements were performed in standard glass capillaries (NanoTemper Technologies). […] All dissociation constants (KD) were calculated to a binding model assuming a 1:1 stoichiometry per binding partner.
(§2) The experiments were performed with the purified extracellual domains 1 (ECD1) and 2 (ECD2) of ABCA1 [18]. Two complementary MST tests were performed, in which either the proteins were labeled with a fluorescence moiety or the endogenous fluorescence of the unlabeled proteins was monitored).

ECD1 of ABCA1 [3] = target: T1, ECD1 of ABCA1; experiment: Microscale thermophoresis (MST) binding, label free protein; details: unlabelled ECD1
Method: as §1, §2

ABCA1 = target: T2, ABCA1 (Homo sapiens, UniProt O95477); experiment: Target recognition: binding to ABCA1 (summary of labelled and label free MST)
T2 construct: The proteins used in these experiments were Extra-Cellular Domain 1 (ECD1) of ABCA1 and Extra-Cellular Domain 2 (ECD2); purchased Biomatick
T2 sequence (O95477 43-639 limits assumed): T1 sequence (O95477 43-639 limits assumed)
Method: as §1, §2
A. HTS Screening and Target Recognition • 1.

Row | EC50 (Human Astrocytes; Table 2) | EC50 (Human Astrocytes; Table 4) | Binding to ECD1 (Labelled MST) Amplitude (ECD1 of ABCA1 [2]) | Kd (ECD1 of ABCA1 [2]) | Binding to ECD1 (Label free MST) Amplitude (ECD1 of ABCA1 [3]) | Kd (ECD1 of ABCA1 [3]) | MST binding to ECD1 (ABCA1) | Compound | Viability Rodent Astrocytes ([1]; Table 2) | Viability Rodent Astrocytes ([1]; Table 4) | Stimulation of cholesterol efflux from human astrocytes to apoE4 (Human Astrocytes; test compounds 50 μM)
1 | > 44.8 µM | > 44.8 µM | 10.85 a.u. | 278 µM | 39.96 a.u. | 178 µM | bind saturably to ECD1 | Cc1nn(CC(=O)c2ccc(Br)s2)c(C)c1[N+](=O)[O-] [Hit #3] | Normal | Normal | 
2 | 28.3 µM | 28.3 µM | 13.63 a.u. | 27 µM | 16.45 a.u. | > 350 µM | bind saturably to ECD1 | CC(C)(C)C(=O)COC(=O)c1ccccc1SCc1cc(-c2ccco2)on1 [Hit #4] | Normal | Normal | 
3 | > 44.8 µM | > 44.8 µM | 9.05 a.u. | 11 µM | 90.25 a.u. | 314 µM |  | C[C@]12CC[C@@H](O)CC1CCC1C2CC[C@](C)(C(=O)O)C1/C=C1/Nc2ccccc2C1=O (stereo partly drawn) [Hit #12] | Normal | Normal | 
4 | > 44.8 µM | > 44.8 µM | 0 a.u. |  | 0 a.u. |  |  | CSC(SC)=C1CC/C(=C/c2ccc(N(C)C)cc2)C1=O [Hit #14] | Normal | Normal | 

Row | Compound | EC50 (Human Astrocytes; Table 2) | EC50 (Human Astrocytes; Table 4) | Binding to ECD1 (Labelled MST) Amplitude (ECD1 of ABCA1 [2]) | Kd (ECD1 of ABCA1 [2]) | Binding to ECD1 (Label free MST) Amplitude (ECD1 of ABCA1 [3]) | Kd (ECD1 of ABCA1 [3]) | MST binding to ECD1 (ABCA1) | Viability Rodent Astrocytes ([1]; Table 2) | Viability Rodent Astrocytes ([1]; Table 4) | Stimulation of cholesterol efflux from human astrocytes to apoE4 (Human Astrocytes; test compounds 50 μM)
5 | O=[N+]([O-])c1ccc(N2CCCCC2)c2nonc12 [Hit #7] | 8.56 µM | 8.56 µM | 22.05 a.u. |  |  |  | scored positively | Normal | Normal | activates cholesterol efflux
